The text below walks through data of patent US9738634B2, “Heterocyclic amide compound and herbicide” (SYNGENTA PARTICIPATIONS AG, priority 2013, dated 2017).

Common to all, as to format: in vivo
For series [1], the system named is bulrush. Put plainly: Test Example 1: weedkilling efficacy, preemergent weed treatment in the submerged state; B: bulrush. From the text: (§1) Weedkilling efficacy test on preemergent weed treatment in the submerged state
(§2) Alluvial soil was introduced into 1/10,000 Are Wagner pots, and 4 cm depth submerged conditions were created by addition of water and mixing. Seeds of barnyard grass, bulrush and oval-leafed pondweed were mixed and sown into the aforesaid cups, then 2.5 leaf stage rice seedlings were transplanted. On the sowing day, emulsions of compounds of the present invention prepared according to compounding example 2 were diluted with water to give the specified dosages and applied onto the water surface. The plants were grown after placing the cups in a greenhouse at 25 to 30° C. 3 weeks after the pesticide treatment the effect on each type of plant was investigated on the basis of the following assessment criteria.
(§3) A: barnyard grass, B: bulrush, C: oval-leafed pondweed, D: crabgrass, E: green foxtail, F: barnyard grass, G: wild oat, H: black-grass, I: Italian ryegrass, J: common wind-grass, K: Indian mallow, L: redroot pigweed, M: fig-leafed goosefoot, N: chickweed, O: catchweed, p: birds-eye speedwell, a: transplanted rice, b: directly sown rice, c: corn, d: soybean, e: wheat, f: beet, g: rapeseed
(§4) Further, pesticide dosage (g/ha) indicates the concentration regulated such that treatment was with only the stated number of grams (g), when calculated per hectare (ha).

Series [2] concerns bulrush. Description: Test Example 2: weedkilling efficacy, growth period weed treatment in the submerged state; B: bulrush. How it is done: (§5) Weedkilling efficacy test on growth period weed treatment in the submerged state
as §2, with “and the plants were grown by placing in a greenhouse at 25 to 30° C. When the barnyard grass, bulrush and oval-leafed pondweed had reached the 1-2” for “then 2.5”, “stage,” for “stage rice seedlings were transplanted. On the sowing day,”, “surface.” for “surface. The plants were grown after placing the cups in a greenhouse at 25 to 30° C.”, “the” for “the following”, “criteria of test example 1.” for “criteria.”
as §3, §4

A further series has as its system transplanted rice. Put plainly: Test Example 1: preemergent weed treatment in the submerged state, effect on crop; a: transplanted rice.
Text: as §1, §2, §3, §4

For series [3], the system named is oval-leafed pondweed. Description: Test Example 2: weedkilling efficacy, growth period weed treatment in the submerged state; C: oval-leafed pondweed. How it is done:
as §5
as §2, with “and the plants were grown by placing in a greenhouse at 25 to 30° C. When the barnyard grass, bulrush and oval-leafed pondweed had reached the 1-2” for “then 2.5”, “stage,” for “stage rice seedlings were transplanted. On the sowing day,”, “surface.” for “surface. The plants were grown after placing the cups in a greenhouse at 25 to 30° C.”, “the” for “the following”, “criteria of test example 1.” for “criteria.”
as §3, §4

The test system of series [4] is barnyard grass. Description: Test Example 1: weedkilling efficacy, preemergent weed treatment in the submerged state; A: barnyard grass.
Text: as §1, §2, §3, §4

The test system of series [5] is oval-leafed pondweed. Description: Test Example 1: weedkilling efficacy, preemergent weed treatment in the submerged state; C: oval-leafed pondweed.
Text: as §1, §2, §3, §4

In series [6] the test system is barnyard grass. Description: Test Example 2: weedkilling efficacy, growth period weed treatment in the submerged state; A: barnyard grass. How it is done:
as §5
as §2, with “and the plants were grown by placing in a greenhouse at 25 to 30° C. When the barnyard grass, bulrush and oval-leafed pondweed had reached the 1-2” for “then 2.5”, “stage,” for “stage rice seedlings were transplanted. On the sowing day,”, “surface.” for “surface. The plants were grown after placing the cups in a greenhouse at 25 to 30° C.”, “the” for “the following”, “criteria of test example 1.” for “criteria.”
as §3, §4

Consider `CC(C)(C(=O)Nc1cnc(Cl)c(Cl)c1)N1COCN(c2ccccc2)C1=O` [A-3-05], for which the “B: bulrush, weed kill grade” value in the series on bulrush [1] (treatment dosage 320 g/ha) is on record as 5 (weed kill ratio 90% or more, (practically complete withering)). In the series on bulrush [2] (treatment dosage 320 g/ha), the “B (bulrush) weedkilling efficacy grade” value is recorded as 5 (weed kill ratio 90% or more, (practically complete withering)). Also, the “a: transplanted rice, effect on crop grade” value (from here on “a: transplanted rice, effect”) in the series on transplanted rice (treatment dosage 320 g/ha) was 0 (weed kill ratio 5% or less (practically no effect)). Also, the “C (oval-leafed pondweed) weedkilling efficacy grade” value in the series with oval-leafed pondweed [3] (treatment dosage 320 g/ha) is recorded as 5 (weed kill ratio 90% or more, (practically complete withering)). For the same compound, in the series on barnyard grass [4] (treatment dosage 320 g/ha), the “A: barnyard grass, weed kill grade” value is on record as 3 (weed kill ratio 40% or more, less than 70%). For the same compound, in the series on oval-leafed pondweed [5] (treatment dosage 320 g/ha), the “C: oval-leafed pondweed, weed kill grade” value was 5 (weed kill ratio 90% or more, (practically complete withering)). For the same compound, the “A (barnyard grass) weedkilling efficacy grade” value in the series with barnyard grass [6] (treatment dosage 320 g/ha) is given as 4 (weed kill ratio 70% or more, less than 90%).

On to `CC(C)(C(=O)Nc1cc(-c2ccccc2)ccn1)N1COCN(c2ccccc2)C1=O` [A-2-49], for which, in the series with bulrush [1] (treatment dosage 252 g/ha), the “B: bulrush, weed kill grade” value is recorded as 5 (weed kill ratio 90% or more, (practically complete withering)). The “B (bulrush) weedkilling efficacy grade” value with bulrush [2] (treatment dosage 252 g/ha) was 4 (weed kill ratio 70% or more, less than 90%). The “a: transplanted rice, effect” value in the series with transplanted rice (treatment dosage 252 g/ha) is listed as 1 (weed kill ratio 5% or more, less than 20%). In addition, in the series on oval-leafed pondweed [3] (treatment dosage 252 g/ha), the “C (oval-leafed pondweed) weedkilling efficacy grade” value is reported as 4 (weed kill ratio 70% or more, less than 90%). Also, in the series with barnyard grass [4] (treatment dosage 252 g/ha), the “A: barnyard grass, weed kill grade” value is listed as 5 (weed kill ratio 90% or more, (practically complete withering)). The “C: oval-leafed pondweed, weed kill grade” value in the series with oval-leafed pondweed [5] (treatment dosage 252 g/ha) is recorded as 5 (weed kill ratio 90% or more, (practically complete withering)). In addition, in the series on barnyard grass [6] (treatment dosage 252 g/ha), the “A (barnyard grass) weedkilling efficacy grade” value was 4 (weed kill ratio 70% or more, less than 90%).

Take `CC1=C(c2ccccc2)C(=O)N(C(C)(C)C(=O)Nc2cc(-c3ccccc3)ccn2)CO1` [B-2-59]: the “B (bulrush) weedkilling efficacy grade” value is given as 4 (weed kill ratio 70% or more, less than 90%) in the series with bulrush [1] (treatment dosage 252 g/ha) and 1 (weed kill ratio 5% or more, less than 20%) in the series with bulrush [2] (treatment dosage 252 g/ha). The “a (transplanted rice) effect on crop grade” value (shortened to “a (transplanted rice) effect”) in the series with transplanted rice (treatment dosage 252 g/ha) is recorded as 0 (weed kill ratio 5% or less (practically no effect)). Moreover, the “C (oval-leafed pondweed) weedkilling efficacy grade” value in the series on oval-leafed pondweed [3] (treatment dosage 252 g/ha) is given as 0 (weed kill ratio 5% or less (practically no effect)); in the series on oval-leafed pondweed [5] (treatment dosage 252 g/ha), 2 (weed kill ratio 20% or more, less than 40%). The “A (barnyard grass) weedkilling efficacy grade” value is on record as 2 (weed kill ratio 20% or more, less than 40%) in the series on barnyard grass [4] (treatment dosage 252 g/ha) and 0 (weed kill ratio 5% or less (practically no effect)) in the series with barnyard grass [6] (treatment dosage 252 g/ha).

`COc1ccnc(NC(=O)C(C)(C)N2COCN(c3ccccc3)C2=O)c1` [A-2-51]: in the series on bulrush [1] (treatment dosage 252 g/ha), the “B: bulrush, weed kill grade” value is listed as 5 (weed kill ratio 90% or more, (practically complete withering)). For the same compound, in the series with transplanted rice (treatment dosage 252 g/ha), the “a: transplanted rice, effect” value was 0 (weed kill ratio 5% or less (practically no effect)). Also, the “A: barnyard grass, weed kill grade” value in the series on barnyard grass [4] (treatment dosage 252 g/ha) is 4 (weed kill ratio 70% or more, less than 90%). The “C: oval-leafed pondweed, weed kill grade” value in the series with oval-leafed pondweed [5] (treatment dosage 252 g/ha) is 2 (weed kill ratio 20% or more, less than 40%).

On to `Cc1cnc(Cl)c(NC(=O)C(C)(C)N2COCN(c3ccccc3)C2=O)c1` [A-3-09], for which the “B: bulrush, weed kill grade” value in the series with bulrush [1] (treatment dosage 252 g/ha) is reported as 4 (weed kill ratio 70% or more, less than 90%). For the same compound, the “a: transplanted rice, effect” value in the series with transplanted rice (treatment dosage 252 g/ha) is 1 (weed kill ratio 5% or more, less than 20%). Further, the “A: barnyard grass, weed kill grade” value in the series on barnyard grass [4] (treatment dosage 252 g/ha) is 2 (weed kill ratio 20% or more, less than 40%). In the series with oval-leafed pondweed [5] (treatment dosage 252 g/ha), the “C: oval-leafed pondweed, weed kill grade” value is recorded as 0 (weed kill ratio 5% or less (practically no effect)).

On to `Cc1ccc(N2COCN(C(C)(C)C(=O)Nc3cc(C(F)(F)F)ccn3)C2=O)cc1` [A-6-09], for which the “B: bulrush, weed kill grade” value with bulrush [1] (treatment dosage 320 g/ha) is 5 (weed kill ratio 90% or more, (practically complete withering)). Further, in the series on bulrush [2] (treatment dosage 320 g/ha), the “B (bulrush) weedkilling efficacy grade” value is recorded as 3 (weed kill ratio 40% or more, less than 70%). For the same compound, the “a: transplanted rice, effect” value with transplanted rice (treatment dosage 320 g/ha) is on record as 0 (weed kill ratio 5% or less (practically no effect)). Also, in the series on barnyard grass [4] (treatment dosage 320 g/ha), the “A: barnyard grass, weed kill grade” value is 4 (weed kill ratio 70% or more, less than 90%). In addition, the “C: oval-leafed pondweed, weed kill grade” value with oval-leafed pondweed [5] (treatment dosage 320 g/ha) is given as 4 (weed kill ratio 70% or more, less than 90%). Besides, in the series on barnyard grass [6] (treatment dosage 320 g/ha), the “A (barnyard grass) weedkilling efficacy grade” value was 3 (weed kill ratio 40% or more, less than 70%).

As to `CC(C)(C(=O)Nc1nc(Cl)ccc1Cl)N1COCN(c2ccccc2)C1=O` [A-2-16], the “B: bulrush, weed kill grade” value in the series with bulrush [1] (treatment dosage 252 g/ha) was 5 (weed kill ratio 90% or more, (practically complete withering)). Besides, the “a: transplanted rice, effect” value with transplanted rice (treatment dosage 252 g/ha) is 0 (weed kill ratio 5% or less (practically no effect)). Besides, the “A: barnyard grass, weed kill grade” value in the series with barnyard grass [4] (treatment dosage 252 g/ha) is recorded as 0 (weed kill ratio 5% or less (practically no effect)). Moreover, the “C: oval-leafed pondweed, weed kill grade” value in the series on oval-leafed pondweed [5] (treatment dosage 252 g/ha) is reported as 2 (weed kill ratio 20% or more, less than 40%).

In the case of `COc1ccc(N2COCN(C(C)(C)C(=O)Nc3cc(C(F)(F)F)ccn3)C2=O)cc1Cl` [A-6-05], the “B: bulrush, weed kill grade” value with bulrush [1] (treatment dosage 320 g/ha) is reported as 2 (weed kill ratio 20% or more, less than 40%). Also, the “a: transplanted rice, effect” value in the series with transplanted rice (treatment dosage 320 g/ha) was 0 (weed kill ratio 5% or less (practically no effect)). In addition, in the series with barnyard grass [4] (treatment dosage 320 g/ha), the “A: barnyard grass, weed kill grade” value was 2 (weed kill ratio 20% or more, less than 40%). Further, in the series on oval-leafed pondweed [5] (treatment dosage 320 g/ha), the “C: oval-leafed pondweed, weed kill grade” value was 2 (weed kill ratio 20% or more, less than 40%).

Turning to `COc1cc(C(F)(F)F)cc(NC(=O)C(C)(C)N2COCN(c3ccccc3)C2=O)n1` [A-2-59], the “B: bulrush, weed kill grade” value with bulrush [1] (treatment dosage 320 g/ha) is reported as 5 (weed kill ratio 90% or more, (practically complete withering)). In addition, the “a: transplanted rice, effect” value in the series with transplanted rice (treatment dosage 320 g/ha) is 1 (weed kill ratio 5% or more, less than 20%). Besides, the “A: barnyard grass, weed kill grade” value in the series with barnyard grass [4] (treatment dosage 320 g/ha) was 5 (weed kill ratio 90% or more, (practically complete withering)). For the same compound, the “C: oval-leafed pondweed, weed kill grade” value in the series on oval-leafed pondweed [5] (treatment dosage 320 g/ha) is 5 (weed kill ratio 90% or more, (practically complete withering)).

`CC1=C(c2cncnc2)C(=O)N(C(C)(C)C(=O)Nc2cccc(Cl)n2)CO1` [B-2-22]: the “B (bulrush) weedkilling efficacy grade” value in the series with bulrush [1] (treatment dosage 1000 g/ha) is recorded as 3 (weed kill ratio 40% or more, less than 70%). Further, the “a (transplanted rice) effect” value with transplanted rice (treatment dosage 1000 g/ha) is on record as 0 (weed kill ratio 5% or less (practically no effect)). Further, the “A (barnyard grass) weedkilling efficacy grade” value with barnyard grass [4] (treatment dosage 1000 g/ha) is listed as 3 (weed kill ratio 40% or more, less than 70%). In the series with oval-leafed pondweed [5] (treatment dosage 1000 g/ha), the “C (oval-leafed pondweed) weedkilling efficacy grade” value is 1 (weed kill ratio 5% or more, less than 20%).

For `COC(=O)c1ccnc(NC(=O)C(C)(C)N2COCN(c3ccccc3)C2=O)c1` [A-2-47], in the series on bulrush [1] (treatment dosage 320 g/ha), the “B: bulrush, weed kill grade” value is 4 (weed kill ratio 70% or more, less than 90%). Further, in the series on transplanted rice (treatment dosage 320 g/ha), the “a: transplanted rice, effect” value is given as 0 (weed kill ratio 5% or less (practically no effect)). Further, in the series with barnyard grass [4] (treatment dosage 320 g/ha), the “A: barnyard grass, weed kill grade” value is on record as 2 (weed kill ratio 20% or more, less than 40%). Further, the “C: oval-leafed pondweed, weed kill grade” value in the series on oval-leafed pondweed [5] (treatment dosage 320 g/ha) was 0 (weed kill ratio 5% or less (practically no effect)).

Turning to `CC1=C(c2ccnc(F)c2)C(=O)N(C(C)(C)C(=O)Nc2cccc(Cl)n2)CO1` [B-2-21], the “B (bulrush) weedkilling efficacy grade” value in the series with bulrush [1] (treatment dosage 252 g/ha) is on record as 5 (weed kill ratio 90% or more, (practically complete withering)). For the same compound, the “a (transplanted rice) effect” value with transplanted rice (treatment dosage 252 g/ha) was 0 (weed kill ratio 5% or less (practically no effect)). Besides, in the series with barnyard grass [4] (treatment dosage 252 g/ha), the “A (barnyard grass) weedkilling efficacy grade” value was 0 (weed kill ratio 5% or less (practically no effect)). Besides, the “C (oval-leafed pondweed) weedkilling efficacy grade” value with oval-leafed pondweed [5] (treatment dosage 252 g/ha) was 3 (weed kill ratio 40% or more, less than 70%).
